Patent US7615361B2, “Toxicity screening methods” (Ceetox, Inc., priority 2006, dated 2009)

Legend:
BrdU incorporation = type: cell-based, human; settings: human, run #2, read-out: BrdU TC50; for CC50 at 24 h: SK-MEL28, 24 HR; for CC50 at 72 h: SK-MEL28, 72 HR
Method: Bromodexoyurine (BrDU) Incorporation: This assay was used to monitor cumulative changes in DNA replication. The assay uses the thymidine analog BrdU to measure S-phase of cell replication and is considered to be the Gold Standard for cell proliferation. BrDU (10 μM) was included in the test compound dosing solution to allow BrDU incorporation during cell replication. BrDU was included for the duration of the exposure, 24 hr. After completion of exposure period, the cells were fixed and labeled with mouse monoclonal anti-BrDU (FITC). Fluorescence was measured using a Packard Fusion or equivalent plate reader at 485 nm excitation and 530 nm emission.
Bromodexoyurine (BrDU) Incorporation: After incubation, the test compound/BrDU solution was removed and cells were fixed. A solution containing mouse monoclonal anti-BrDU (FITC) was added and fluorescence was measured. Data were collected as relative fluorescent units (RFU). The blank was subtracted from the final well RFU. It represents the average of the first and last columns which contain no cells on that particular plate. The controls are untreated cells allowed to grow on the same plate. The compounds are represented by several separate RFU data points for each of the tested concentrations. The percent change relative to controls was calculated by dividing the average RFU by the control cell RFU and multiplying by 100.
Experiments were also conducted to verify the relationship between exposure time and the observed cytostatic effects of the test compound. An additional assay was used to monitor cumulative change in DNA replication. The assay uses the thymidine analog BrdU to measure S-phase of cell replication and is considered to be the Gold Standard for cell proliferation. […] The BrdU assay paralleled the MTT and propidium iodide assays. The apparent lower sensitivity of the BrdU assay is a reflection of the experimental design not the assay. BrdU data represents a cumulative effect from the beginning of exposure while the other assays are measuring one is remaining at the end of either the 24 hr or 72 hr exposure period. […] There was a trend toward increasing activity in caspase-3, a marker for cell apoptosis.

SK-MEL28 cells = assay: Membrane lipid peroxidation (8-isoprostane ELISA)
Method: Lipid Peroxidation Measured as 8-Isoprostane (8-ISO): 8-ISO levels were determined using an ELISA. 8-ISO is a member of a family of eicosanoids produced non-enzymatically by random oxidation of tissue phospholipids by oxygen radicals. Therefore, an increase in 8-ISO is an indirect measure of increased lipid peroxidation (Vacchiano and Tempel, 1994). At the end of the exposure period, plates were either analyzed immediately or stored at −80° C. until needed for analysis. Color development, which is […] to the amount of 8-ISO present in the sample, was read on a Packard Fusion or equivalent plate reader at 415 nm.
Lipid Peroxidation Measured as 8-Isoprostane (8-ISO): Background absorbance produced from Ellman's reagent is subtracted from all wells. Non-specific binding is subtracted from the maximum binding wells to give a corrected maximum binding expressed as Bo. The percent of bound (B) relative to maximum binding capacity (Bo) for all unknown samples and for standards was determined an expressed as (% B/Bo). The % B/Bo for standards was plotted against the log of 8-ISO added to yield the final standard curve. This curve was used to convert % B/Bo to pg 8-ISO/mL of sample.
(§1) The test compound consisted of two parts mixed in a constant ratio of 5:1. The final test mixture consisted of Test mix 1 and Test mix 2, which were received as frozen solutions. The test mixture was tested in a ratio of 5:1 COMP A in five different cell types which included the following: SK-MEL28, human hepatocytes, HUVEC, C32, and NHEM cells. Cells were seeded into 96-well plates and cultured in medium containing 10% bovine serum. […]
Experimental Protocol: The test compounds were shipped on dry ice for testing. The compounds were stored frozen at −80° C. until needed. Dosing solutions were prepared in complete culture medium. SK-MEL28, human hepatocytes, HUVEC, C32, and NHEM cells were used as the test systems. Cells were seeded into 96-well plates and allowed to equilibrate for approximately 48 hr. Following the equilibration period the cells were exposed to the test compound mix at concentrations of COMP A (μg/mL)=(250:50), (125:25), (25:12.5), (12.5:2.5), (2.5:1.25), (1.25:0.25), and (0.25:0.05). […] Following the exposure period, the cells or their supernatant (culture medium) were analyzed for changes in cell proliferation, membrane leakage, mitochondrial function, oxidative stress, and apoptosis. The resultant exposure concentration response curves were graphed and analyzed for determining the concentration that produced a half maximal response or TC50.

MTT reduction [1] = settings: human; for CC50 at 24 h: MTT TC50, SK-MEL28, 24 HR
Method: (§2) Tetrazolium Dye Reduction: 3-[4,5-dimethylthiazol-2-yl]
as §1
Experimental Protocol: The test compounds were shipped on dry ice for testing. The compounds were stored frozen at −80° C. until needed. Dosing solutions were prepared in complete culture medium. SK-MEL28, human hepatocytes, HUVEC, C32, and NHEM cells were used as the test systems. Cells were seeded into 96-well plates and allowed to equilibrate for approximately 48 hr. Following the equilibration period the cells were exposed to the test compound mix at concentrations of COMP A (μg/mL)=(250:50), (125:25), (25:12.5), (12.5:2.5), (2.5:1.25), (1.25:0.25), and (0.25:0.05). Solubility was determined by Nephalometry techniques immediately after dosing and prior to harvesting the cells at 24 hr. Following the exposure period, the cells or their supernatant (culture medium) were analyzed for changes in cell proliferation, membrane leakage, mitochondrial function, oxidative stress, and apoptosis. The resultant exposure concentration response curves were graphed and analyzed for determining the concentration that produced a half maximal response or TC50.

P-glycoprotein (PgP) = P-glycoprotein (PgP) (Homo sapiens, UniProt P08183); assay: P-glycoprotein (PgP) binding: MTT with and without cyclosporin A, SK-MEL28 cells; type: cell-based; design: SK-MEL28, human hepatocytes, HUVEC, C32, and NHEM cells were used as the test systems; endogenous in cells; host or cells: SK-MEL28 cells; settings: SK-MEL28 24 HR; for % Control (Compound + CSA): with cyclosporin A; for % Control (Compound): without CSA
P-glycoprotein (PgP), sequence (P08183 whole entry): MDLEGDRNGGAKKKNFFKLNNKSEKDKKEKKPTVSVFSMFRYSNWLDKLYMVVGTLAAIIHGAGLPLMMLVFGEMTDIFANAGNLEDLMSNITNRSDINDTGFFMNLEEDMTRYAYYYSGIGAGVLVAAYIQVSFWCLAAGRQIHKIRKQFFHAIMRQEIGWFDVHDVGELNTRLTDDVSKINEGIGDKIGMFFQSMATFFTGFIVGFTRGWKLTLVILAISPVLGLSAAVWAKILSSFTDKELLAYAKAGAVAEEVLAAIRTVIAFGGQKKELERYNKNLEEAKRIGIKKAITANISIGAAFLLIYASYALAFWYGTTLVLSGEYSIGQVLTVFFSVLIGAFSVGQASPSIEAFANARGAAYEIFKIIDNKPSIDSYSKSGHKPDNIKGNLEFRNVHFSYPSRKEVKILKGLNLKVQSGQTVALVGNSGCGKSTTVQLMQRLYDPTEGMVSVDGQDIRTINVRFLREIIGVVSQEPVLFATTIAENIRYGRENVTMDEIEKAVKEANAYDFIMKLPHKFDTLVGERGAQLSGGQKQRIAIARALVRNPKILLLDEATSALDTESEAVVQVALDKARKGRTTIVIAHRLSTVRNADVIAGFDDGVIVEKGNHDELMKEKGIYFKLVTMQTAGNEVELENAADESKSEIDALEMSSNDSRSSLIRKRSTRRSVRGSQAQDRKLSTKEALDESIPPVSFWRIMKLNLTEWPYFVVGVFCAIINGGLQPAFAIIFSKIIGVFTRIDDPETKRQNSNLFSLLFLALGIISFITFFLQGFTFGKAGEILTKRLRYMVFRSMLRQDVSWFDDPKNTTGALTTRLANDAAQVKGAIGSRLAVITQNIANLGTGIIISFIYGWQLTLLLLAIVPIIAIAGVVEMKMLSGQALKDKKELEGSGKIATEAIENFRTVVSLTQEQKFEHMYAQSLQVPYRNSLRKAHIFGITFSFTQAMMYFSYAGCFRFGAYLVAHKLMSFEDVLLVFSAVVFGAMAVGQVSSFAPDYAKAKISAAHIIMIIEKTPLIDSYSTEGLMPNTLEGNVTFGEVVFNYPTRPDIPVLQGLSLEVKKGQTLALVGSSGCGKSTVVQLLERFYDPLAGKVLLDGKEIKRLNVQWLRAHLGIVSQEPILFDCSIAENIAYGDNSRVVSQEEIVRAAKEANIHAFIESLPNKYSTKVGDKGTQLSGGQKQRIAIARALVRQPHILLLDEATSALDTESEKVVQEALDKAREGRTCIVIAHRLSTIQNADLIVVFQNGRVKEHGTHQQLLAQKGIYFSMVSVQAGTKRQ

MTT reduction [2] = type: cell-based; settings: read-out: MTT TC50
Method: as §2
Dosing solutions were prepared in complete culture medium.

[3] = SK-MEL28, 24 HR, COMP A (LOW) / controls #2
[4] = SK-MEL28, 72 HR, COMP A (LOW) / controls #2

Structure (SMILES)	CC50 at 24 h (BrdU incorporation) [µM]	CC50 at 72 h (BrdU incorporation) [µM]	Membrane Lipid Peroxidation (SK-MEL28 cells; SK-MEL28, 24 HR)	Membrane Lipid Peroxidation (SK-MEL28 cells; [3])	Membrane Lipid Peroxidation (SK-MEL28 cells; [4])	CC50 at 72 h (MTT reduction [1]) [µM]	% Control (Compound + CSA) (P-glycoprotein (PgP)) [%]	% Control (Compound) (P-glycoprotein (PgP)) [%]	CC50 at 24 h (MTT reduction [2]; human hepatocytes) [µM]	CC50 at 24 h (BrdU incorporation; SK-MEL28 cells) [µM]	CC50 at 72 h (BrdU incorporation; SK-MEL28 cells) [µM]	CC50 at 24 h (MTT reduction [1]; SK-MEL28 cells) [µM]	CC50 at 24 h (MTT reduction [1]; SK-MEL28 cells, run #2) [µM]	CC50 at 72 h (MTT reduction [1]; SK-MEL28 cells, MTT TC50, SK-MEL28, 72 HR, run #2) [µM]	CC50 at 24 h (MTT reduction [2]; human, C32 cells, C32, 24 HR) [µM]	CC50 at 24 h (MTT reduction [2]; human, HUVEC) [µM]
C=C(C)[C@H]1Cc2c(ccc3c2O[C@@H]2COc4cc(OC)c(OC)cc4[C@@H]2C3=O)O1 [ROTENONE, Rotenone]	9	44	3 (3 = Concentration related increase with a maximum value ≧30 pg/mL)	2 (2 = Concentration related increase with maximum values ≧15 pg/mL)	3 (3 = Concentration related increase with a maximum value ≧30 pg/mL)	0.2	117.3	98.2	3	–	–	–	–	–	–	–
CC[C@@]1(O)C(=O)OCc2c1cc1n(c2=O)Cc2cc3ccccc3nc2-1 [CAMPTOTHECIN, Camptothecin]	–	–	0	0	1 (1 = Modest increase with maximum values ≦15 pg/mL)	–	63.3	56.5	–	0.1	0.2	241	249	0.1	213	41
